Test results taken from patent EP0936867B1, “BENZOYLPHENYLUREA INSECTICIDES AND METHODS OF USING CERTAIN BENZOYLPHENYLUREAS TO CONTROL COCKROACHES, ANTS, FLEAS, AND TERMITES” (Dow AgroSciences LLC, priority 1996, dated 1998).

Tests used:
Assay type in all cases: in vivo
[1] = system: Cat Flea (Ctenocephalides fells); assay: Continuous exposure of larvae to treated media, impact on subsequent adult emergence
Description: Cat Flea (Ctenocephalides fells)
Continuous exposure of larvae to treated media, impact on subsequent adult emergence Rates: 0.1, 1.0, 10, 100, 1000 ppm

[2] = system: German cockroach 2nd instars (Blattella germanica); assay: Limited ingestion exposure (48 hr) to treated cornmeal
Description: German cockroach 2nd instars (Blattella germanica)
Limited ingestion exposure (48 hr) to treated cornmeal Rates: 1, 10, 100, 1000, 10000 ppm

[3] = system: German cockroach 2nd instars (Blattella germanica); assay: Continuous, low-dose ingestion exposure (treated cornmeal)
[4] = system: Subterranean Termite (Reticulitermes flavipes); assay: Continuous exposure (56 days) to treated paper
Description: (§1) Subterranean Termite (Reticulitermes flavipes)
Continuous exposure (56 days) to treated paper Rates: 0.78, 3.12, 12.5, 50, 200 ppm

Daphnia = assay: Activity against Daphnia, 48 hr exposure to treated water
Description: 48 hr exposure to treated water

[5] = system: Subterranean Termite (Reticulitermes flavipes); assay: Limited exposure (7 days), mortality determined at 14, 28, 42 and 56 days
Description: as §1
Limited exposure (7 days) with mortality determined at 14, 28, 42, and 56 […]

[6] = system: Red Imported Fire Ant (RIFA) (Solenopsis invicta); assay: Laboratory ant bait study, 3-4 day exposure to bait, brood reduction
Description: (§2) Laboratory ant bait studies were carried out with Red Imported Fire Ant (RIFA) (Solenopsis invicta) and Pharaoh Ant (Monomorium pharaonis). Chitin synthesis inhibitors, such as the compounds of the invention, control ants by killing the molting larvae and/or pupae and potentially preventing the hatching of eggs. Because adult workers are not affected, control is measured by effects on the brood. The studies involved 3-4 day exposure to bait. These limited exposure studies more accurately represent real world bait availability than continuous exposure.

[7] = system: Pharaoh Ant (Monomorium pharaonis); assay: as above; conditions: concentration tested 0.1%
Description: as §2

## CCN(C(=O)NC(=O)c1c(F)cccc1F)c1cc(Cl)c(OC(F)(F)C(F)C(F)(F)F)c(Cl)c1F (stereo not drawn) [Compound 2, N-[3,5-Dichloro-2-fluoro-4-(1,1,2,3,3,3-hexafluoropropoxy)phenyl]-N'-(2,6-difluorobenzoyl)-N-ethylurea]
[1]
  LC50 (ppm): 12.7 ppm
  LC90 (ppm): 18.6 ppm
[2]
  LC50 (ppm) 21 days: 21.1 ppm
  LC50 (ppm) 42 days: 12.8 ppm
[3]
  LC50 (ppm) 21 days: 0.35 ppm
  LC50 (ppm) 42 days: 0.26 ppm
[4]
  LC50 (ppm) 35 days: < 0.78 ppm
  LC50 (ppm) 56 days: < 0.78 ppm

## O=C(NC(=O)c1c(F)cccc1F)Nc1cc(Cl)c(OC(F)(F)C(F)F)c(Cl)c1 [hexaflumuron, reference compound]
[1]
  LC50 (ppm): 65.7 ppm
  LC90 (ppm): 333.5 ppm
Daphnia
  LC50 (ppb) in water: 68.1 ppb
[2]
  LC50 (ppm) 21 days: > 10,000 ppm
  LC50 (ppm) 42 days: > 10,000 ppm
[5]
  LT50 (days) for 10000 ppm treatment: 32.9 days
[3]
  LC50 (ppm) 21 days: > 200 ppm
  LC50 (ppm) 42 days: > 200 ppm
[6]; concentration tested 0.25%
  Time to Achieve 50% Brood Reduction: 4 wks
  Time to Achieve 90% Brood Reduction: 10 wks
[4]
  LT50 (days) for 200 ppm trt: 33.8 days
  LC50 (ppm) 35 days: > 200 ppm
  LC50 (ppm) 56 days: 1.3 ppm

## O=C(NC(=O)c1c(F)cccc1F)Nc1cc(Cl)c(OC(F)(F)C(F)C(F)(F)F)c(Cl)c1F (stereo not drawn) [Compound 1]
[1]
  LC50 (ppm): 2.8 ppm
  LC90 (ppm): 22 ppm
Daphnia
  LC50 (ppb) in water: 5.0 ppb
[2]
  LC50 (ppm) 21 days: < 22.2 ppm
  LC50 (ppm) 42 days: < 9.1 ppm
[5]
  LT50 (days) for 10000 ppm treatment: 23.7 days
[3]
  LC50 (ppm) 21 days: < 2.2 ppm
  LC50 (ppm) 42 days: <0.78 ppm
[6]; concentration tested 0.1%
  Time to Achieve 50% Brood Reduction: 2 wks
  Time to Achieve 90% Brood Reduction: 3 wks
[7]; 3-4 day exposure to bait
  Time to Achieve 50% Brood Reduction: 4 wks
[7]; at 13 wks
  Percent brood reduction achieved at end of study: 70%
[4]
  LT50 (days) for 200 ppm trt: 27.6 days
  LC50 (ppm) 35 days: 31.2 ppm
  LC50 (ppm) 56 days: < 0.78 ppm

## CCN(C(=O)Nc1cc(Cl)c(OC(F)(F)C(F)C(F)(F)F)c(Cl)c1F)C(=O)c1c(F)cccc1F (stereo not drawn) [Compound 3, N-[3,5-Dichloro-2-fluoro-4-(1,1,2,3,3,3-hexafluoropropoxy)phenyl]-N'-(2,6-difluorobenzoyl)-N'-ethyl urea]
Daphnia
  LC50 (ppb) in water: > 100 ppb
[3]
  LC50 (ppm) 21 days: 8.0 ppm
  LC50 (ppm) 42 days: 1.5 ppm
